The values that follow come from patent US12486302B2, “Somatostatin receptor antagonist compounds and methods of using the same” (CDRD VENTURES INC., priority 2016, dated 2025).

Where a SMILES comes first, the peptide text is derived from it. Bridges are numbered along the chain shown (N, C = ends). [ ]: non-standard residue; d: D form. The star is where a group is joined. ξ: configuration not given here. dPhe(4-CONH2) = NC(=O)c1ccc(C[C@@H](N)C(=O)O)cc1; Phe(4-Cl) = N[C@@H](Cc1ccc(Cl)cc1)C(=O)O; ξPhe(4-Cl) = NC(Cc1ccc(Cl)cc1)C(=O)O; Butanoyl(3,3-Me2) = CC(C)(C)CC(=O)*; Lys(Me) = CNCCCC[C@H](N)C(=O)O; X4 = O=C(CS(=O)(=O)c1ccccc1)*; Succinamoyl = NC(=O)CCC(=O)*; Picolinoyl = O=C(c1ccccn1)*; ξY = NC(Cc1ccc(O)cc1)C(=O)O; ξF = NC(Cc1ccccc1)C(=O)O; Hexanoyl = CCCCCC(=O)*; Bz = O=C(c1ccccc1)*; βAla = NCCC(=O)O

Chain of somatostatin type 2 (SSTR2) receptors (P30874 whole entry, the tested form may be a part): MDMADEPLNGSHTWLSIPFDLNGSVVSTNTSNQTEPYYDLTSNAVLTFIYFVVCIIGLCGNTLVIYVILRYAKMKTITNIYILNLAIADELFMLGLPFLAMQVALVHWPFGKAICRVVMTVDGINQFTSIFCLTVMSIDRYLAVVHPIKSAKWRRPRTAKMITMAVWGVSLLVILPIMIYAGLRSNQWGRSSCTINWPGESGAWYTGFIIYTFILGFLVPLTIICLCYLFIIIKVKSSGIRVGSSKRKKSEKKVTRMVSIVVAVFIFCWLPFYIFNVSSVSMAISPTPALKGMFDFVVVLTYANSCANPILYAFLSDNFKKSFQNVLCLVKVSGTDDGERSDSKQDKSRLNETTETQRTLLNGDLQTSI

The target of the experiment is somatostatin type 2 (SSTR2) receptors (Homo sapiens, UniProt P30874). Description: PathHunter β-Arrestin assay, antagonist mode, SSTR2. Type of experiment: cell-based. As to conditions: agonist challenge at EC80. As to the method:
The PathHunter® β-Arrestin assay monitors the activation of a GPCR in a homogenous, non-imaging assay format using a technology developed by DiscoveRx called Enzyme Fragment Complementation (EFC) with β-galactosidase (β-Gal) as the functional reporter. […] EA is fused to β-Arrestin and […] is fused to the GPCR of interest. When the GPCR is activated and β-Arrestin is recruited to the receptor, ED and EA complementation occurs, restoring β-Gal activity which is measured using chemiluminescent PathHunter® Detection Reagents. For antagonist determination, cells were pre-incubated with the compounds followed by agonist challenge at the EC80 concentration. Data was normalized to the maximal and minimal response observed in the presence of EC80 ligand and vehicle. Compound activity was analyzed using CBIS data analysis suite ChemInnovation, CA). Percentage inhibition was calculated using the following formula: % Inhibition=100%×(1−(mean signal of test sample-mean signal of vehicle control)/(mean signal of EC80 control-mean signal of vehicle control)). Percentage inhibition was calculated at 10 concentrations in steps on a Log 3 scale ranging from […] to 5e-5 μM. The results were plotted for IC50 calculation.
Usually IC50 stands for the concentration needed to halve the response being measured. A low value points to greater potency. The molecule `C[C@@H](O)[C@@H]1NC(=O)[C@H](CCCCN)NC(=O)[C@@H](Cc2ccc(C(N)=O)cc2)NC(=O)[C@H](Cc2ccccc2)NC(=O)[C@H](NC(=O)[C@@H](N)Cc2ccc(Cl)cc2)CSSC[C@@H](C(=O)NC(Cc2ccccc2)C(N)=O)NC1=O` (stereo partly drawn) [Compound 41, H-Cpa-cyclo[DCys- Phe-D-(4- carbamoyl)Phe-Lys- Thr-Cys]-DPhe-NH2] (H-[Phe(4-Cl)][dC]F[dPhe(4-CONH2)]KTC[ξF]-NH2; disulfide 2-7) showed an IC50 of 24.4 nM.

For `C[C@@H](O)[C@@H]1NC(=O)[C@H](CCCCN)NC(=O)[C@@H](Cc2ccc(C(N)=O)cc2)NC(=O)[C@H](Cc2ccc(O)cc2)NC(=O)[C@H](NC(=O)[C@@H](N)Cc2ccc(Cl)cc2)CSSC[C@@H](C(=O)NC(Cc2ccc(Cl)cc2)C(N)=O)NC1=O` (stereo partly drawn) [Compound 42, H-Cpa-cyclo[DCys- Tyr-D-(4- carbamoyl)Phe- Lys-Thr-Cys]- 4-Cl-D-Phe-NH2] (H-[Phe(4-Cl)][dC]Y[dPhe(4-CONH2)]KTC[ξPhe(4-Cl)]-NH2; disulfide 2-7), the IC50 worked out at 9.84 nM. With `C[C@@H](O)[C@@H]1NC(=O)[C@H](CCCCN)NC(=O)[C@@H](Cc2ccc(C(N)=O)cc2)NC(=O)[C@H](Cc2ccc(Cl)cc2)NC(=O)[C@H](NC(=O)[C@@H](N)Cc2ccc(Cl)cc2)CSSC[C@@H](C(=O)NC(Cc2ccc(Cl)cc2)C(N)=O)NC1=O` (stereo partly drawn) [Compound 43, H-Cpa-cyclo[DCys- 4-Cl-Phe-D-(4- carbamoyl)Phe-Lys- Thr-Cys]-4-Cl-D- Phe-NH2] (H-[Phe(4-Cl)][dC][Phe(4-Cl)][dPhe(4-CONH2)]KTC[ξPhe(4-Cl)]-NH2; disulfide 2-7) the figure was 25.6 nM; with `COc1ccc(CC(NC(=O)[C@@H]2CSSC[C@@H](NC(=O)[C@@H](N)Cc3ccc(Cl)cc3)C(=O)N[C@@H](Cc3ccc(O)cc3)C(=O)N[C@H](Cc3ccc(C(N)=O)cc3)C(=O)N[C@@H](CCCCN)C(=O)N[C@@H]([C@@H](C)O)C(=O)N2)C(N)=O)cc1` (stereo partly drawn) [Compound 44, H-Cpa-cyclo[DCys- Tyr-D-(4- carbamoyl)Phe-Lys- Thr-Cys]-4-OMe-D- Phe-NH2] (H-[Phe(4-Cl)][dC]Y[dPhe(4-CONH2)]KTC[ξY](Me)-NH2; disulfide 2-7), 10.7 nM; with `COc1ccc(CC(NC(=O)[C@@H]2CSSC[C@@H](NC(=O)[C@@H](N)Cc3ccc(Cl)cc3)C(=O)N[C@@H](Cc3ccc(OC)cc3)C(=O)N[C@H](Cc3ccc(C(N)=O)cc3)C(=O)N[C@@H](CCCCN)C(=O)N[C@@H]([C@@H](C)O)C(=O)N2)C(N)=O)cc1` (stereo partly drawn) [Compound 45, H-Cpa-cyclo[DCys- 4-OMe-Phe-D-(4- carbamoyl)Phe-Lys- Thr-Cys]-4-OMe-D- Phe-NH2] (H-[Phe(4-Cl)][dC]Y(Me)[dPhe(4-CONH2)]KTC[ξY](Me)-NH2; disulfide 2-7), 14.6 nM. With `CNCCCC[C@@H]1NC(=O)[C@@H](Cc2ccc(C(N)=O)cc2)NC(=O)[C@H](Cc2ccc(O)cc2)NC(=O)[C@H](NC(=O)[C@@H](N)Cc2ccc(Cl)cc2)CSSC[C@@H](C(=O)NC(Cc2ccc(Cl)cc2)C(N)=O)NC(=O)[C@H]([C@@H](C)O)NC1=O` (stereo partly drawn) [Compound 46, H-Cpa-cyclo[D-Cys-Tyr-D-Phe(4-carbamoyl)-Lys(N^ε-Me)-Thr-Cys]-D-Cpa-NH2] (H-[Phe(4-Cl)][dC]Y[dPhe(4-CONH2)][Lys(Me)]TC[ξPhe(4-Cl)]-NH2; disulfide 2-7) the figure was 0.398 nM. With `CNCCCC[C@@H]1NC(=O)[C@@H](Cc2ccc(C(N)=O)cc2)NC(=O)[C@H](Cc2ccc(Cl)cc2)NC(=O)[C@H](NC(=O)[C@@H](N)Cc2ccc(Cl)cc2)CSSC[C@@H](C(=O)NC(Cc2ccc(Cl)cc2)C(N)=O)NC(=O)[C@H]([C@@H](C)O)NC1=O` (stereo partly drawn) [Compound 47, H-Cpa-cyclo[D-Cys-Cpa-D-Phe(4-carbamoyl)-Lys(N^ε-Me)-Thr-Cys]-D-Cpa-NH2] (H-[Phe(4-Cl)][dC][Phe(4-Cl)][dPhe(4-CONH2)][Lys(Me)]TC[ξPhe(4-Cl)]-NH2; disulfide 2-7) the figure was 1.51 nM. For `CNCCCC[C@@H]1NC(=O)[C@@H](Cc2ccc(C(N)=O)cc2)NC(=O)[C@H](Cc2ccc(Cl)cc2)NC(=O)[C@H](NC(=O)[C@@H](N)Cc2ccc(Cl)cc2)CSSC[C@@H](C(=O)NC(Cc2ccc(O)cc2)C(N)=O)NC(=O)[C@H]([C@@H](C)O)NC1=O` (stereo partly drawn) [Compound 48, H-Cpa-cyclo[D-Cys-Cpa-D-Phe(4-carbamoyl)-Lys(N^ε-Me)-Thr-Cys]-D-Tyr-NH2] (H-[Phe(4-Cl)][dC][Phe(4-Cl)][dPhe(4-CONH2)][Lys(Me)]TC[ξY]-NH2; disulfide 2-7), the IC50 was found to be 1.31 nM. `CNCCCC[C@@H]1NC(=O)[C@@H](Cc2ccc(C(N)=O)cc2)NC(=O)[C@H](Cc2ccc(O)cc2)NC(=O)[C@H](NC(=O)[C@H](Cc2ccc(Cl)cc2)NC(=O)CCN)CSSC[C@@H](C(=O)N[C@H](Cc2ccc(O)cc2)C(N)=O)NC(=O)[C@H]([C@@H](C)O)NC1=O` [Compound 49, H-β-Ala-Cpa-cyclo[D-Cys-Tyr-D-Phe(4-carbamoyl)-Lys (Nε-Me)-Thr-Cys]-D-Tyr-NH2] (H-[βAla][Phe(4-Cl)][dC]Y[dPhe(4-CONH2)][Lys(Me)]TC[dY]-NH2; disulfide 3-8) came in with an IC50 of 2.86 nM. With `CNCCCC[C@@H]1NC(=O)[C@@H](Cc2ccc(C(N)=O)cc2)NC(=O)[C@H](Cc2ccc(O)cc2)NC(=O)[C@H](NC(=O)[C@H](Cc2ccc(Cl)cc2)NC(=O)CNC(=O)c2ccccc2)CSSC[C@@H](C(=O)N[C@H](Cc2ccc(O)cc2)C(N)=O)NC(=O)[C@H]([C@@H](C)O)NC1=O` [Compound 50, Ph(CO)NHCH2(CO)-Cpa-cyclo[D-Cys-Tyr-D-Phe(4-carbamoyl)-Lys(N^ε-Me)-Thr-Cys]-D-Tyr-NH2] (Bz-G[Phe(4-Cl)][dC]Y[dPhe(4-CONH2)][Lys(Me)]TC[dY]-NH2; disulfide 3-8) the figure was 1.11 nM; with `CNCCCC[C@@H]1NC(=O)[C@@H](Cc2ccc(C(N)=O)cc2)NC(=O)[C@H](Cc2ccc(O)cc2)NC(=O)[C@H](NC(=O)[C@H](Cc2ccc(Cl)cc2)NC(=O)CS(=O)(=O)c2ccccc2)CSSC[C@@H](C(=O)N[C@H](Cc2ccc(O)cc2)C(N)=O)NC(=O)[C@H]([C@@H](C)O)NC1=O` [Compound 51, PhSO2CH2(CO)-Cpa-cyclo[D-Cys-Tyr-D-Phe(4-carbamoyl)-Lys(N^ε-Me)-Thr-Cys]-D-Tyr-NH2] (X4-[Phe(4-Cl)][dC]Y[dPhe(4-CONH2)][Lys(Me)]TC[dY]-NH2; disulfide 2-7), 1.45 nM; with `CNCCCC[C@@H]1NC(=O)[C@@H](Cc2ccc(C(N)=O)cc2)NC(=O)[C@H](Cc2ccc(O)cc2)NC(=O)[C@H](NC(=O)[C@H](Cc2ccc(Cl)cc2)NC(=O)CC(C)(C)C)CSSC[C@@H](C(=O)N[C@H](Cc2ccc(O)cc2)C(N)=O)NC(=O)[C@H]([C@@H](C)O)NC1=O` [Compound 52, t-BuCH2(CO)-Cpa-cyclo[D-Cys-Tyr-D-Phe(4-carbamoyl)-Lys(N^ε-Me)-Thr-Cys]-D-Tyr-NH2] ({Butanoyl(3,3-Me2)}-[Phe(4-Cl)][dC]Y[dPhe(4-CONH2)][Lys(Me)]TC[dY]-NH2; disulfide 2-7), 1.73 nM. With `CNCCCC[C@@H]1NC(=O)[C@@H](Cc2ccc(C(N)=O)cc2)NC(=O)[C@H](Cc2ccc(O)cc2)NC(=O)[C@H](NC(=O)[C@H](Cc2ccc(Cl)cc2)NC(=O)c2ccccn2)CSSC[C@@H](C(=O)N[C@H](Cc2ccc(O)cc2)C(N)=O)NC(=O)[C@H]([C@@H](C)O)NC1=O` [Compound 53, 2-Pyridyl(CO)-Cpa-cyclo[D-Cys-Tyr-D-Phe(4-carbamoyl)-Lys(N^ε-Me)-Thr-Cys]-D-Tyr-NH2] (Picolinoyl-[Phe(4-Cl)][dC]Y[dPhe(4-CONH2)][Lys(Me)]TC[dY]-NH2; disulfide 2-7) the figure was 4.28 nM; with `CNCCCC[C@@H]1NC(=O)[C@@H](Cc2ccc(C(N)=O)cc2)NC(=O)[C@H](Cc2ccc(O)cc2)NC(=O)[C@H](NC(=O)[C@H](Cc2ccc(Cl)cc2)NC(=O)CCC(N)=O)CSSC[C@@H](C(=O)N[C@H](Cc2ccc(O)cc2)C(N)=O)NC(=O)[C@H]([C@@H](C)O)NC1=O` [Compound 54, H2N(CO)(CH2)2(CO)-Cpa-cyclo[D-Cys-Tyr-D-Phe(4-carbamoyl)-Lys(N^ε-Me)-Thr-Cys]-D-Tyr-NH2] (Succinamoyl-[Phe(4-Cl)][dC]Y[dPhe(4-CONH2)][Lys(Me)]TC[dY]-NH2; disulfide 2-7), 2.33 nM; with `CNCCCC[C@@H]1NC(=O)[C@@H](Cc2ccc(C(N)=O)cc2)NC(=O)[C@H](Cc2ccc(O)cc2)NC(=O)[C@H](NC(=O)[C@H](Cc2ccc(Cl)cc2)NC(=O)CNC(C)=O)CSSC[C@@H](C(=O)N[C@H](Cc2ccc(O)cc2)C(N)=O)NC(=O)[C@H]([C@@H](C)O)NC1=O` [Compound 55, Ac-Gly-Cpa-cyclo[D-Cys-Tyr-D-Phe(4-carbamoyl)-Lys(N^ε-Me)-Thr-Cys]-D-Tyr-NH2] (Ac-G[Phe(4-Cl)][dC]Y[dPhe(4-CONH2)][Lys(Me)]TC[dY]-NH2; disulfide 3-8), 3.35 nM. For the molecule `CCCCCC(=O)N[C@@H](Cc1ccc(Cl)cc1)C(=O)N[C@@H]1CSSC[C@@H](C(=O)N[C@H](Cc2ccc(O)cc2)C(N)=O)NC(=O)[C@H]([C@@H](C)O)NC(=O)[C@H](CCCCNC)NC(=O)[C@@H](Cc2ccc(C(N)=O)cc2)NC(=O)[C@H](Cc2ccc(O)cc2)NC1=O` [Compound 56, CH3(CH2)4(CO)-Cpa-cyclo[D-Cys-Tyr-D-Phe(4-carbamoyl)-Lys(N^ε-Me)-Thr-Cys]-D-Tyr-NH2] (Hexanoyl-[Phe(4-Cl)][dC]Y[dPhe(4-CONH2)][Lys(Me)]TC[dY]-NH2; disulfide 2-7), the IC50 was found to be 1.6 nM.
